Columns and labels:
A549 = assay: Cytotoxicity against human A549 cells assessed as inhibition of cell growth after 24 hrs by MTT assay; format: functional, cell-based; conditions: A549, 24 h
[1] = Cytotoxicity against human Bel7402 cells assessed as inhibition of cell growth after 24 hrs by MTT assay; format: functional, cell-based; conditions: Bel-7402, 24 h
SMMC-7721 = assay: Cytotoxicity against human SMMC7721 cells assessed as inhibition of cell growth after 24 hrs by MTT assay; format: functional, cell-based; conditions: SMMC-7721, 24 h
[2] = Cytotoxicity against human HL7702 cells assessed as inhibition of cell growth after 24 hrs by MTT assay; format: cell-based; conditions: L02, 24 h
[3] = Hemolytic activity in rabbit RBC assessed as induction of hemolysis; format: cell-based, Oryctolagus cuniculus, Erythrocyte; conditions: red blood cells, read-out: HD50 (the source's name)
Mus musculus [4] = assay: Toxicity in mouse assessed as induction of induction of death at 0.1 mL/10 g, iv; format: organism-based; conditions: in vivo
Mus musculus [5] = assay: Toxicity in mouse assessed as induction of hematuria at 0.1 mL/10 g, iv; format: organism-based; conditions: in vivo
[6] = Toxicity in iv dosed mouse assessed as tolerance dose; format: organism-based; conditions: in vivo
Mus musculus [7] = assay: Toxicity in mouse assessed as death time at 0.1 mL/10 g, iv; format: organism-based; conditions: in vivo
[8] = Ratio of hemolytic HD50 for PSA to hemolytic HD50 for compound in rabbit RBC; format: ADME, cell-based, Oryctolagus cuniculus; conditions: erythrocyte

SMILES: C[C@@H]1O[C@@H](O[C@H]2[C@H](O[C@H]3CC[C@@]4(C)[C@@H](CC[C@]5(C)[C@@H]4CC=C4[C@@H]6CC(C)(C)CC[C@]6(C(N)=O)CC[C@]45C)[C@]3(C)CO)OC[C@H](O)[C@@H]2O)[C@H](O)[C@H](O)[C@H]1O
- IC50 (A549): > 100 µM
- IC50 [1]: > 100 µM
- IC50 (SMMC-7721): > 100 µM
- IC50 [2]: > 100 µM
- HC50 [3]: 30.2 µM

SMILES: C[C@@H]1O[C@@H](O[C@H]2[C@H](O[C@H]3CC[C@@]4(C)[C@@H](CC[C@]5(C)[C@@H]4CC=C4[C@@H]6CC(C)(C)CC[C@]6(C(=O)Nc6ccccc6O)CC[C@]45C)[C@]3(C)CO)OC[C@H](O)[C@@H]2O)[C@H](O)[C@H](O)[C@H]1O
- IC50 (A549): > 100 µM
- IC50 [1]: > 100 µM
- IC50 (SMMC-7721): 1.3 µM
- IC50 [2]: 85.5 µM
- HC50 [3]: 58.2 µM

SMILES: C[C@@H]1O[C@@H](O[C@H]2[C@H](O[C@H]3CC[C@@]4(C)[C@@H](CC[C@]5(C)[C@@H]4CC=C4[C@@H]6CC(C)(C)CC[C@]6(C(=O)[O-])CC[C@]45C)[C@]3(C)CO)OC[C@H](O)[C@@H]2O)[C@H](O)[C@H](O)[C@H]1O.[Na+]
- Activity (Mus musculus [4]): Toxic
- Activity (Mus musculus [5]): Toxic
- MTD [6]: 10 mg/kg
- Time (Mus musculus [7]): < 0.0417 days

SMILES: COC(=O)[C@@H](CO)NC(=O)[C@]12CCC(C)(C)C[C@H]1C1=CC[C@@H]3[C@@]4(C)CC[C@H](O[C@@H]5OC[C@H](O)[C@H](O)[C@H]5O[C@@H]5O[C@@H](C)[C@H](O)[C@@H](O)[C@H]5O)[C@@](C)(CO)[C@@H]4CC[C@@]3(C)[C@]1(C)CC2
- IC50 (A549): > 100 µM
- IC50 [1]: > 100 µM
- IC50 (SMMC-7721): 88.3 µM
- IC50 [2]: > 100 µM
- HC50 [3]: 144 µM
- Ratio [8]: 20

SMILES: C[C@@H]1O[C@@H](O[C@H]2[C@H](O[C@H]3CC[C@@]4(C)[C@@H](CC[C@]5(C)[C@@H]4CC=C4[C@@H]6CC(C)(C)CC[C@]6(C(=O)N6CCOCC6)CC[C@]45C)[C@]3(C)CO)OC[C@H](O)[C@@H]2O)[C@H](O)[C@H](O)[C@H]1O
- IC50 (A549): 34.7 µM
- IC50 [1]: 37.9 µM
- IC50 (SMMC-7721): 17.2 µM
- IC50 [2]: 22 µM
- HC50 [3]: 230 µM
- Ratio [8]: 20

SMILES: C[C@@H]1O[C@@H](O[C@H]2[C@H](O[C@H]3CC[C@@]4(C)[C@@H](CC[C@]5(C)[C@@H]4CC=C4[C@@H]6CC(C)(C)CC[C@]6(C(=O)N6CCN(CCC(=O)O)CC6)CC[C@]45C)[C@]3(C)CO)OC[C@H](O)[C@@H]2O)[C@H](O)[C@H](O)[C@H]1O
- IC50 (A549): 23.4 µM
- IC50 [1]: > 100 µM
- IC50 (SMMC-7721): > 100 µM
- IC50 [2]: 46.6 µM
- HC50 [3]: 195 µM
- Ratio [8]: 20

SMILES: COC(=O)[C@]12CCC(C)(C)C[C@H]1C1=CC[C@@H]3[C@@]4(C)CC[C@H](O[C@@H]5OC[C@H](O)[C@H](O)[C@H]5O[C@@H]5O[C@@H](C)[C@H](O)[C@@H](O)[C@H]5O)[C@@](C)(CO)[C@@H]4CC[C@@]3(C)[C@]1(C)CC2
- IC50 (A549): 27 µM
- IC50 [1]: 72.1 µM
- IC50 (SMMC-7721): 40.8 µM
- IC50 [2]: 36.3 µM
- HC50 [3]: 8.5 µM

SMILES: C[C@@H]1O[C@@H](O[C@H]2[C@H](O[C@H]3CC[C@@]4(C)[C@@H](CC[C@]5(C)[C@@H]4CC=C4[C@@H]6CC(C)(C)CC[C@]6(C(=O)N6CCC[C@@H]6C(=O)O)CC[C@]45C)[C@]3(C)CO)OC[C@H](O)[C@@H]2O)[C@H](O)[C@H](O)[C@H]1O
- IC50 (A549): 61.6 µM
- IC50 [1]: 64 µM
- IC50 (SMMC-7721): 41.4 µM
- IC50 [2]: 53.7 µM
- HC50 [3]: 22.9 µM

SMILES: COC(=O)[C@H]1CCCN1C(=O)[C@]12CCC(C)(C)C[C@H]1C1=CC[C@@H]3[C@@]4(C)CC[C@H](O[C@@H]5OC[C@H](O)[C@H](O)[C@H]5O[C@@H]5O[C@@H](C)[C@H](O)[C@@H](O)[C@H]5O)[C@@](C)(CO)[C@@H]4CC[C@@]3(C)[C@]1(C)CC2
- IC50 (A549): 43.2 µM
- IC50 [1]: 59.6 µM
- IC50 (SMMC-7721): 36 µM
- IC50 [2]: 36.6 µM
- HC50 [3]: 494 µM
- Ratio [8]: 20

SMILES: C[C@@H]1O[C@@H](O[C@H]2[C@H](O[C@H]3CC[C@@]4(C)[C@@H](CC[C@]5(C)[C@@H]4CC=C4[C@@H]6CC(C)(C)CC[C@]6(C(=O)NCC(=O)[O-])CC[C@]45C)[C@]3(C)CO)OC[C@H](O[C@@H]3O[C@H](CO)[C@@H](O)[C@H](O)[C@H]3O)[C@@H]2O)[C@H](O)[C@H](O)[C@H]1O.[Na+]
- Activity (Mus musculus [4]): Non-toxic
- Activity (Mus musculus [5]): Non-toxic
- MTD [6]: > 160 mg/kg
- Time (Mus musculus [7]): > 14 days

SMILES: C[C@@H]1O[C@@H](O[C@H]2[C@H](O[C@H]3CC[C@@]4(C)[C@@H](CC[C@]5(C)[C@@H]4CC=C4[C@@H]6CC(C)(C)CC[C@]6(C(=O)NCC(=O)O)CC[C@]45C)[C@]3(C)CO)OC[C@H](O)[C@@H]2O)[C@H](O)[C@H](O)[C@H]1O
- IC50 (A549): 1 µM
- IC50 [1]: 0.9 µM
- IC50 (SMMC-7721): 3.2 µM
- IC50 [2]: > 100 µM
- HC50 [3]: > 500 µM
- Ratio [8]: 20

SMILES: CCN(CC)CCNC(=O)[C@]12CCC(C)(C)C[C@H]1C1=CC[C@@H]3[C@@]4(C)CC[C@H](O[C@@H]5OC[C@H](O)[C@H](O)[C@H]5O[C@@H]5O[C@@H](C)[C@H](O)[C@@H](O)[C@H]5O)[C@@](C)(CO)[C@@H]4CC[C@@]3(C)[C@]1(C)CC2
- IC50 (A549): 65.3 µM
- IC50 [1]: > 100 µM
- IC50 (SMMC-7721): 48 µM
- IC50 [2]: 40.6 µM
- HC50 [3]: 75.3 µM

SMILES: C[C@@H]1O[C@@H](O[C@H]2[C@H](O[C@H]3CC[C@@]4(C)[C@@H](CC[C@]5(C)[C@@H]4CC=C4[C@@H]6CC(C)(C)CC[C@]6(C(=O)NCC(=O)[O-])CC[C@]45C)[C@]3(C)CO)OC[C@H](O)[C@@H]2O)[C@H](O)[C@H](O)[C@H]1O.[Na+]
- Activity (Mus musculus [4]): Non-toxic
- Activity (Mus musculus [5]): Non-toxic
- MTD [6]: > 160 mg/kg
- Time (Mus musculus [7]): > 14 days

SMILES: CC(=O)OCOC(=O)[C@]12CCC(C)(C)C[C@H]1C1=CC[C@@H]3[C@@]4(C)CC[C@H](O[C@@H]5OC[C@H](O)[C@H](O)[C@H]5O[C@@H]5O[C@@H](C)[C@H](O)[C@@H](O)[C@H]5O)[C@@](C)(CO)[C@@H]4CC[C@@]3(C)[C@]1(C)CC2
- IC50 (A549): 21.3 µM
- IC50 [1]: 33.8 µM
- IC50 (SMMC-7721): 13.2 µM
- IC50 [2]: 20.5 µM
- HC50 [3]: 3.6 µM

SMILES: C[C@@H]1O[C@@H](O[C@H]2[C@H](O[C@H]3CC[C@@]4(C)[C@@H](CC[C@]5(C)[C@@H]4CC=C4[C@@H]6CC(C)(C)CC[C@]6(C(=O)NCCN6CCCC6)CC[C@]45C)[C@]3(C)CO)OC[C@H](O)[C@@H]2O)[C@H](O)[C@H](O)[C@H]1O
- IC50 (A549): > 100 µM
- IC50 [1]: > 100 µM
- IC50 (SMMC-7721): 46.8 µM
- IC50 [2]: 44.4 µM
- HC50 [3]: 104 µM

SMILES: COC(=O)CCN1CCN(C(=O)[C@]23CCC(C)(C)C[C@H]2C2=CC[C@@H]4[C@@]5(C)CC[C@H](O[C@@H]6OC[C@H](O)[C@H](O)[C@H]6O[C@@H]6O[C@@H](C)[C@H](O)[C@@H](O)[C@H]6O)[C@@](C)(CO)[C@@H]5CC[C@@]4(C)[C@]2(C)CC3)CC1
- IC50 (A549): 14 µM
- IC50 [1]: 53.2 µM
- IC50 (SMMC-7721): 38.3 µM
- IC50 [2]: 61.7 µM
- HC50 [3]: 57.7 µM

SMILES: C[C@@H]1O[C@@H](O[C@H]2[C@H](O[C@H]3CC[C@@]4(C)[C@@H](CC[C@]5(C)[C@@H]4CC=C4[C@@H]6CC(C)(C)CC[C@]6(C(=O)N[C@H](CO)C(=O)O)CC[C@]45C)[C@]3(C)CO)OC[C@H](O)[C@@H]2O)[C@H](O)[C@H](O)[C@H]1O
- IC50 (A549): 32.5 µM
- IC50 [1]: 22.3 µM
- IC50 (SMMC-7721): 26.6 µM
- IC50 [2]: 25.6 µM
- HC50 [3]: 8.3 µM

SMILES: C[C@@H]1O[C@@H](O[C@H]2[C@H](O[C@H]3CC[C@@]4(C)[C@@H](CC[C@]5(C)[C@@H]4CC=C4[C@@H]6CC(C)(C)CC[C@]6(C(=O)Nc6ccc(C(=O)O)cc6)CC[C@]45C)[C@]3(C)CO)OC[C@H](O)[C@@H]2O)[C@H](O)[C@H](O)[C@H]1O
- IC50 (A549): 1.1 µM
- IC50 [1]: 4.2 µM
- IC50 (SMMC-7721): > 100 µM
- IC50 [2]: 0.7 µM
- HC50 [3]: 356 µM
- Ratio [8]: 20

SMILES: C[C@@H]1O[C@@H](O[C@H]2[C@H](O[C@H]3CC[C@@]4(C)[C@@H](CC[C@]5(C)[C@@H]4CC=C4[C@@H]6CC(C)(C)CC[C@]6(C(=O)NC6CC6)CC[C@]45C)[C@]3(C)CO)OC[C@H](O)[C@@H]2O)[C@H](O)[C@H](O)[C@H]1O
- IC50 (A549): 38.3 µM
- IC50 [1]: 69.2 µM
- IC50 (SMMC-7721): 32.6 µM
- IC50 [2]: 36.2 µM
- HC50 [3]: 127 µM
